# In patent US7626030B2, “Compounds and methods of use” (Amgen Inc., priority 2004, dated 2009):
# Target: T1, c-Met in PC3 cells (Homo sapiens, UniProt P08581)
# T1 construct: host or cells: PC3 cells
# Test: c-Met cell-based autophosphorylation assay, PC3 cells
# Conditions: HGF-stimulated
# Procedure: c-Met Cell-Based Autophosphorylation Assay
# Human PC3 and mouse CT26 cells are available obtained from ATCC. The cells were cultured in a growth medium containing RPMI 1640, penicillin/streptomycin/glutamine (1×) and 5% FBS. 2×10^4 cells in medium were plated per well in a 96 well plate and incubated at 37° C. overnight. The cells were serum-starved by replacing the growth media with basic medium (DMEM low glucose+0.1 BSA, 120 μL per well) at 37° C. for 16 h. Compounds (either 1 mM and 0.2 mM) in 100% DMSO were serially diluted (1:3) 3333 fold on a 96 well plate, diluting 1:3 with DMSO from column 1 to 11 (columns 6 and 12 receive no compound). Compound samples (2.4 μL per well) were diluted with basic medium (240 μL) in a 96 well plate. The cells were washed once with basic medium (GIBCO, DMEM 11885-076) then compound solution was added (100 μL). The cells were incubated at 37° C. for 1 h. A (2 mg/mL) solution of CHO-HGF (7.5 μL) was diluted with 30 mL basic medium to provide a final concentration of 500 ng/mL. This HGF-containing media (120 μL) was transferred to a 96 well plate. Compounds (1.2 μL) was added to the HGF-containing media and mixed well. The mixture of media/HGF/compound (100 μL) was added to the cells (final HGF concentration—250 ng/mL) then incubated at 37° C. for 10 min. A cell lysate buffer (20 mL) was prepared containing 1% Triton X-100, 50 mM Tris pH 8.0, 100 mM NaCl, Protease inhibitor (Sigma, #P-8340) 200 μL, Roche Protease inhibitor (Complete, # 1-697-498) 2 tablets, Phosphatase Inhibitor II (Sigma, #P-5726) 200 μL, and a sodium vanadate solution (containing 900 μL PBS, 100 μL 300 mM NaVO3, 6 μl H2O2 (30% stock) and stirred at RT for 15 min) (90 μL). The cells were washed once with ice cold 1×PBS (GIBCO, #14190-136), then lysis buffer (60 μL) was added and the cells were incubated on ice for 20 min.
# The IGEN assay was performed as follows: Dynabeads M-280 streptavidin beads were pre-incubated with biotinylated anti-human HGFR (240 μL anti-human-HGFR (R&D system, BAF527 or BAF328) @ 100 μg/mL+360 μL Beads (IGEN #10029+5.4 μL buffer−PBS/1% BSA/0.1% Tween20) by rotating for 30 min at RT. Antibody beads (25 μL) were transferred to a 96 well plate. Cell lysate solution (25 μL) was transferred added and the plate was shaken at RT for 1 h. Anti-phosphotyrosine 4G10 (Upstate 05-321) (19.7 μL antibody+6 mL 1×PBS) (12.5 μL) was added to each well, then incubated for 1 h at RT. Anti-mouse IgG ORI-Tag (ORIGEN #110087) (24 μL Antibody+6 mL buffer) (12.5 μL) was added to each well, then incubated at RT for 30 min. 1×PBS (175 μL) was added to each well and the electrochemiluminescence was read by an IGEN M8. Raw data was analyzed using a 4-parameter fit equation in XLFit. IC50 values are then determined using Grafit software.
# T1 sequence (P08581 25-1390): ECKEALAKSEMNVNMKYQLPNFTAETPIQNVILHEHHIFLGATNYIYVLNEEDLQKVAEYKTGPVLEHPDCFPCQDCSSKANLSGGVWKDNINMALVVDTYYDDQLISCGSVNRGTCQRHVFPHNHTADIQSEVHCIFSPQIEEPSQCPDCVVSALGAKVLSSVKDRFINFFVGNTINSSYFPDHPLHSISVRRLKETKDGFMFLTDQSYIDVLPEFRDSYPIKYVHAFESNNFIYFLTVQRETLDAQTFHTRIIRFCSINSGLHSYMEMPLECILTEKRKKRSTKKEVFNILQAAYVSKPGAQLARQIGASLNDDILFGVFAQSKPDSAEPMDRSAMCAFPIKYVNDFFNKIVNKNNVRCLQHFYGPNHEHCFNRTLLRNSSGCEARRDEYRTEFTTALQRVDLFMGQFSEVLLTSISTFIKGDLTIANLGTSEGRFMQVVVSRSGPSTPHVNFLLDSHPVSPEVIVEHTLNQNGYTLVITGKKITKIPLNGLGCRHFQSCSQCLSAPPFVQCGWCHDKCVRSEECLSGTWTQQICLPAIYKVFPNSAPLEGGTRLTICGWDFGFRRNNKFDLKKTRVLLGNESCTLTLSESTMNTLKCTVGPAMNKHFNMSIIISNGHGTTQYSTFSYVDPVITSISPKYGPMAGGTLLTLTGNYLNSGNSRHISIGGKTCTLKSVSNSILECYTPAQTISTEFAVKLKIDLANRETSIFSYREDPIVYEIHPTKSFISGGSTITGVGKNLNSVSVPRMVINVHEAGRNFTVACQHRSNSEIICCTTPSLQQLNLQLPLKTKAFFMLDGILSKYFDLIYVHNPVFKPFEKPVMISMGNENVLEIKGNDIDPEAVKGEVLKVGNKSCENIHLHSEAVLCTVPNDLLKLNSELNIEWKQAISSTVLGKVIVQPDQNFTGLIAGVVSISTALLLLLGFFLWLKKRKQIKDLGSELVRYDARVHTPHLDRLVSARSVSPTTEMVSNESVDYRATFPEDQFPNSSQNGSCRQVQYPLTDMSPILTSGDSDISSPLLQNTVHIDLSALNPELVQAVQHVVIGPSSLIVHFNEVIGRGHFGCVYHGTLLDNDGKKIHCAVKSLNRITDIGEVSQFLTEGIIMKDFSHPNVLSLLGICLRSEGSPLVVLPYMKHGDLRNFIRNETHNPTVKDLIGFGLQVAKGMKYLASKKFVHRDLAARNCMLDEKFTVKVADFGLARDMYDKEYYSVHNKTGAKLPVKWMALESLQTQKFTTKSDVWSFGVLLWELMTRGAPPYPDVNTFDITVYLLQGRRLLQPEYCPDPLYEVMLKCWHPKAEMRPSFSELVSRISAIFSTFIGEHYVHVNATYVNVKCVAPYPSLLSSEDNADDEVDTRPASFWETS
row,SMILES,IC50 [nM]
1,"COc1cc2nccc(Oc3ccc4nc(NC(=O)c5ccsc5)sc4c3)c2cc1OC [Example 46, Thiophene-3-carboxylic acid [6-(6,7-dimethoxy-quinolin-4-yloxy)-benzothiazol-2-yl]-amide]",< 1000
2,"Cc1cc(Oc2ccc3nc(NC(=O)Cc4ccccc4)sc3c2)ccn1 [Example 82, N-[6-(2-Methyl-pyridin-4-yloxy)-benzothiazol-2-yl]-2-phenyl-acetamide]",< 1000
3,"COc1cc2nccc(Oc3ccc4oc(Nc5ccc(Cl)cc5)nc4c3)c2cc1OC [Example 96, 5-((6,7-bis(methoxy)-4-quinolinyl)oxy)-N-(4-chlorophenyl)-1,3-benzoxazol-2-amine]",< 1000
4,"COc1cc2c(Oc3ccc4nc(NC(=O)c5ccccc5)sc4c3)ccnc2cc1OCCCN(C)C [Example 102, N-(6-((7-((3-(dimethylamino)propyl)oxy)-6-(methoxy)-4-quinolinyl)oxy)-1,3-benzothiazol-2-yl)benzamide]",< 1000
5,"COc1cc2c(Oc3ccc4nc(NC(=O)c5ccsc5)sc4c3)ccnc2cc1OCCCN1CCOCC1 [Example 104, N-(6-((6-(methoxy)-7-((3-(4-morpholinyl)propyl)oxy)-4-quinolinyl)oxy)-1,3-benzothiazol-2-yl)-1-3-thiohenecarboxamide]",< 1000

# Tested on: Human Umbilical Vein Endothelial cells
# Test: HUVEC proliferation assay (VEGF-stimulated)
# Assay type: cell-based
# Conditions: read-out: inhibition of VEGF-stimulated HUVEC proliferation, level
# Procedure: HUVEC Proliferation Assay
# Human Umbilical Vein Endothelial cells are purchased from Clonetics, Inc., as cryopreserved cells harvested from a pool of donors. These cells, at passage 1, are thawed and expanded in EBM-2 complete medium, until passage 2 or 3. The cells are trypsinized, washed in DMEM+10% FBS+antibiotics, and spun at 1000 rpm for 10 min. Prior to centrifugation of the cells, a small amount is collected for a cell count. After centrifugation, the medium is discarded, and the cells are resuspended in the appropriate volume of DMEM+10% FBS+antibiotics to achieve a concentration of 3×10^5 cells/mL. Another cell count is performed to confirm the cell concentration. The cells are diluted to 3×10^4 cells/mL in DMEM+10% FBS+antibiotics, and 100 μL of cells are added to a 96-well plate. The cells are incubated at 37° C. for 22 h.
# Prior to the completion of the incubation period, compound dilutions are prepared. Five-point, five-fold serial dilutions are prepared in DMSO, at concentrations 400-fold greater than the final concentrations desired. 2.5 μL of each compound dilution are diluted further in a total of 1 mL DMEM+10% FBS+antibiotics (400× dilution). Medium containing 0.25% DMSO is also prepared for the […]. At the 22 h timepoint, the medium is removed from the cells, and 100 μL of each compound dilution is added. The cells are incubated at 37° C. for 2-3 h.
# During the compound pre-incubation period, the growth factors are diluted to the appropriate concentrations. Solutions of DMEM+10% FBS+antibiotics, containing either VEGF or bFGF at the following concentrations: 50, 10, 2, 0.4, 0.08, and 0 ng/mL are prepared. For the compound-treated cells, solutions of VEGF at 550 ng/mL or bFGF at 220 ng/mL for 50 ng/mL or 20 ng/mL final concentrations, respectively, are prepared since 10 μL of each will be added to the cells (110 μL final volume). At the appropriate time after adding the compounds, the growth factors are added. VEGF is added to one set of plates, while bFGF is added to another set of plates. For the growth factor control curves, the media on wells B4-G6 of plates 1 and 2 are replaced with media containing VEGF or bFGF at the varying concentrations (50-0 ng/mL). The cells are incubated at 37° C. for an additional 72 h.
# At the completion of the 72 h incubation period, the medium is removed, and the cells are washed twice with PBS. After the second wash with PBS, the plates are tapped gently to remove excess PBS, and the cells are placed at −70° C. for at least 30 min. The cells are thawed and analyzed using the CyQuant fluorescent dye (Molecular Probes C-7026), following the manufacturer's recommendations. The plates are read on a Victor/Wallac 1420 workstation at 485 nm/530 nm (excitation/emission). Raw data are collected and analyzed using a 4-parameter fit equation in XLFit. IC50 values are then determined.
row,SMILES,IC50 [nM]
1,"COc1ccc(C(=O)Nc2nn(C)c3cc(Oc4ccnc5cc(OC)c(OC)cc45)ccc23)cc1 [Example 132, N-(6-((6,7-bis(methyloxy)-4-quinolinyl)oxy)-1-methyl-1H-indazol-3-yl)-4-(methyloxy)benzamide]",< 500
2,"COc1cc2nccc(Oc3ccc4c(NC(=O)c5ccc(Cl)cc5)nn(C)c4c3)c2cc1OC [Example 134, N-(6-((6,7-bis(methoxy)-4-quinolinyl)oxy)-1-methyl-1H-indazol-3-yl)-4-chlorobenzamide]",< 500
3,"COc1cc2nccc(Oc3ccc4c(NC(=O)c5ccc(C(F)(F)F)cc5)nn(C)c4c3)c2cc1OC [Example 135, N-(6-((6,7-bis(methoxy)-4-quinolinyl)oxy)-1-methyl-1H-indazol-3-yl)-4-(trifluoromethyl)benzamide]",< 500
4,"COc1cc2nccc(Oc3ccc4c(NC(=O)c5ccc(F)c(Cl)c5)nn(C)c4c3)c2cc1OC [Example 137, N-(6-((6,7-bis(methoxy)-4-quinolinyl)oxy)-1-methyl-1H-indazol-3-yl)-3-chloro-4-fluorobenzamide]",< 500
5,"COc1cc2nccc(Oc3ccc4c(NC(=O)c5cc(C(F)(F)F)cc(C(F)(F)F)c5)nn(C)c4c3)c2cc1OC [Example 138, N-(6-((6,7-bis(methoxy)-4-quinolinyl)oxy)-1-methyl-1H-indazol-3-yl)-3,5-bis(trifluoromethyl)benzamide]",< 500
6,"COc1cc2nccc(Oc3ccc4c(NC(=O)c5cccc(C)c5)nn(C)c4c3)c2cc1OC [Example 139, N-(6-((6,7-bis(methoxy)-4-quinolinyl)oxy)-1-methyl-1H-indazol-3-yl)-3-methylbenzamide]",< 500
7,"COc1cc2nccc(Oc3ccc4c(NC(=O)c5cc(Cl)ccn5)nn(C)c4c3)c2cc1OC [Example 140, N-(6-((6,7-bis(methoxy)-4-quinolinyl)oxy)-1-methyl-1H-indazol-3-yl)-4-chloro-2-pyridinecarboxamide]",< 500
8,"COc1cc2nccc(Oc3ccc4c(NC(=O)Nc5ccc(C)cc5)nn(C)c4c3)c2cc1OC [Example 142, N-(6-((6,7-bis(methoxy)quinolinyl)oxy)-1-methyl-1H-indazol-3-yl)-N′-(4-methylphenyl)urea]",< 500
9,"COc1cc2nccc(Oc3ccc4c(NC(=O)Nc5ccccc5)nn(C)c4c3)c2cc1OC [Example 144, N-(6-((6,7-bis(methoxy)-4-quinolinyl)oxy)-1-methyl-1H-indazol-3-yl)-N′-phenylurea]",< 500
10,"COc1ccc(NC(=O)Nc2nn(C)c3cc(Oc4ccnc5cc(OC)c(OC)cc45)ccc23)cc1 [Example 145, N-(6-((6,7-bis(methoxy)-4-quinolinyl)oxy)-1-methyl-1H-indazol-3-yl)-N′-(4-(methyloxy)phenyl)urea]",< 500
